Structures can show the parent of a compound that is named as a salt.
Target: T1, Tubulin (Sus scrofa, UniProt P02550+P02554)
T1 construct: Tubulin is purified from pig brains according to the published methods; from tissue; host or cells: pig brain
Test: Assessment of the inhibition of tubulin polymerization (turbidimetry)
Type: biochemical, pig
Settings: tubulin 10 μM, turbidity at 350 nm, 37° C.
Protocol: Tubulin is purified from pig brains according to the published methods (Shelanski et al., 1973, Proc. Natl, Acad. Sci. USA, 70, 765-768. Weingarten et al., 1975, Proc. Natl, Acad. Sci. USA, 72, 1858-1862). Briefly, the brains are ground and centrifuged in an extraction buffer. The tubulin, contained in the extract supernatant, is subjected to two successive cycles of polymerization at 37° C. and depolymerization at 4° C., before being separated from the MAPs (Microtubule Associated Proteins) by chromatography on a phosphocellulose P11 column (Whatman). The tubulin thus isolated is more than 95% pure. It is stored in a buffer known as RB/2 30% glycerol, the composition of which is MES-NaOH [2-(N-morpholino)ethanesulfonic acid] 50 mM, pH 6.8; MgCl2 0.25 mM; EGTA 0.5 mM; 30% glycerol (v/v), GTP (guanosine 5′-triphosphate) 0.2 mM.
The polymerization of the tubulin into microtubules is monitored by turbidimetry as follows; the tubulin is adjusted to a concentration of 10 μM (1 mg/ml) in the RB/2 30% glycerol buffer, to which is added 1 mM GTP and 6 mM MgCl2. The polymerization is initiated by increasing the temperature from 6° C. to 37° C. in a cuvette with a 1 cm optical pathlength, placed in a Uvikon 931 spectrophotometer (Kontron) equipped with a thermostatically-regulated cuvette holder. The increase in the turbidity of the solution is monitored at 350 nm.
The products are dissolved at 10 mM in DMSO and added at variable concentrations (0.5 to 10 μM) to the tubulin solution before polymerization. The IC50 value is defined as the concentration of product which inhibits 50% of the rate of polymerization. A product whose IC50 value is less than or equal to 3 μM is considered as very active.

T1 sequence (P02550 whole entry): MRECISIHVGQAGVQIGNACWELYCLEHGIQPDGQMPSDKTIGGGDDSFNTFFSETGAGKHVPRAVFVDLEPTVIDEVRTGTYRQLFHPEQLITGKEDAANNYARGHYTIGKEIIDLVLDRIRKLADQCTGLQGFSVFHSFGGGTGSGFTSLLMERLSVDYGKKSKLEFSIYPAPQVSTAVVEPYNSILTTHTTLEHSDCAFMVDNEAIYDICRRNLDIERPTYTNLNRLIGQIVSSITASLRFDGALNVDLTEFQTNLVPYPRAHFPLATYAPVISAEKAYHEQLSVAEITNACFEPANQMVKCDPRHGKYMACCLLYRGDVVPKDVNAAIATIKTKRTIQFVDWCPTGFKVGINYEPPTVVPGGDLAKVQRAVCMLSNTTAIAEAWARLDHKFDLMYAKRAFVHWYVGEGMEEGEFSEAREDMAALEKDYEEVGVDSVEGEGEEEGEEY
T1 sequence (P02554 whole entry): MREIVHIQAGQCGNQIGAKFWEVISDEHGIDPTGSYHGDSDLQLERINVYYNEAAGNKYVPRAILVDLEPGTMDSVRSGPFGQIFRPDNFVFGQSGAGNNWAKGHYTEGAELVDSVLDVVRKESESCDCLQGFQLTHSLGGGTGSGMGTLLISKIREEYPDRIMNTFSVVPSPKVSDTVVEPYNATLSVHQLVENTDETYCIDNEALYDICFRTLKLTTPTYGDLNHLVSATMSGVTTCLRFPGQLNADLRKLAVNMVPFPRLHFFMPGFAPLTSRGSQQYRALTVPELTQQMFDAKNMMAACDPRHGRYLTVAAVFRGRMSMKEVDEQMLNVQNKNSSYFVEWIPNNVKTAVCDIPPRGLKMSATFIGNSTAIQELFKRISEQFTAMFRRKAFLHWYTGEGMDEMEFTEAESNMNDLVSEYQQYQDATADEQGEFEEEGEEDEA

Compound | IC50
COc1cc(C(=O)/C(C)=C/c2ccc3c(ccn3C)c2)cc(OC)c1OC [Example 5, E-2-Methyl-3-(1-methyl-1-H-indol-5-yl)-1-(3,4,5-trimethoxyphenyl)propenone] | 0.7 µM
COc1ccc(/C=C(\C)C(=O)c2cc(OC)c(OC)c(OC)c2)cc1NC(=O)[C@@H](N)CO [Example 13, (S)-2-Amino-3-hydroxypropanoic acid {2-methoxy-5-[2-methyl-3-oxo-3-(3,4,5-trimethoxyphenyl)propenyl]phenyl}amide hydrochloride] | 10 µM
